Test results as given in ChEMBL document CHEMBL4507269, “Data for DCP probe BAY-386” (2021).

How the values were obtained:
[1] = target: Voltage-dependent N-type calcium channel subunit alpha-1B (Homo sapiens) (UniProt Q00975); test: Inhibition of Calcium Channel N-Type at 10 µM in the Eurofins-Panlabs radioligand binding assay (Eurofins_assay_216000); details: Rattus norvegicus; Compound concentration 10.0 uM
[2] = target: Gamma-aminobutyric acid type B receptor subunit 1 (Homo sapiens) (UniProt Q9UBS5); test: Inhibition of GABAB1A at compound concentration of 10.0 uM in the Eurofins-Panlabs radioligand binding assay (Eurofins_assay_228610); set-up: ligand concentration 4 nM; details: Compound concentration 10.0 uM
[3] = target: Melatonin receptor type 1A (Homo sapiens) (UniProt P48039); test: Inhibition of Melatonin MT1 at 10 µM in the Eurofins-Panlabs radioligand binding assay (Eurofins_assay_251600); set-up: ligand concentration 0.05 nM; details: Compound concentration 10.0 uM
[4] = target: Neuropeptide Y receptor type 2 (Homo sapiens) (UniProt P49146); test: Inhibition of Neuropeptide Y Y2 at 10 µM in the Eurofins-Panlabs radioligand binding assay (Eurofins_assay_257110); details: Compound concentration 10.0 uM
[5] = target: ATP-sensitive inward rectifier potassium channel 11 (Cricetulus griseus) (UniProt A0A3L7HHE1); test: Inhibition of Potassium Channel [KATP] at 10 µM in the Eurofins-Panlabs radioligand binding assay (Eurofins_assay_265600); details: Cricetinae; Compound concentration 10.0 uM
[6] = target: Sigma non-opioid intracellular receptor 1 (Homo sapiens) (UniProt Q99720); test: Inhibition of Sigma 1 at 10 µM in the Eurofins-Panlabs radioligand binding assay (Eurofins_assay_278110); set-up: ligand concentration 8 nM; details: Compound concentration 10.0 uM
Rattus norvegicus [7] = organism: Rattus norvegicus; test: Inhibition of Thyroid Hormone at 10 µM in the Eurofins-Panlabs radioligand binding assay (Eurofins_assay_285900); assay type: protein assay; details: Compound concentration 10.0 uM
[8] = target: Mu-type opioid receptor (Homo sapiens) (UniProt P35372); test: my(MOP) (h) Eurofins-Cerep Cellular and Nuclear Receptor Functional Assays; details: Compound concentration 10.0 uM
[9] = target: Histamine H3 receptor (Homo sapiens) (UniProt Q9Y5N1); test: Histamine H3 Eurofins-Panlabs radioligand binding assay; details: Compound concentration 10.0 uM
[10] = target: Adenosine receptor A1 (Homo sapiens) (UniProt P30542); details: Compound concentration 10.0 uM
[11] = target: D(1A) dopamine receptor (Homo sapiens) (UniProt P21728); details: Compound concentration 10.0 uM
[12] = target: D(2) dopamine receptor (Homo sapiens) (UniProt P14416); details: Compound concentration 10.0 uM
[13] = target: Endothelin-1 receptor (Homo sapiens) (UniProt P25101); details: Compound concentration 10.0 uM
[14] = target: GABA-A receptor; anion channel (Rattus norvegicus) (UniProt O09028+P15431+P18506+P18508+P19969+P20236+P23574+P23576+P28471+P28473+P30191+P62813+P63079+P63138+Q91ZM7+Q9ES14); details: Compound concentration 10.0 uM
[15] = target: T1, Glutamate NMDA receptor (Rattus norvegicus) (UniProt P35439+Q00959+Q00960+Q00961+Q62645+Q8VHN2+Q9R1M7); details: Compound concentration 10.0 uM
[16] = target: T1, Glutamate NMDA receptor (Rattus norvegicus); details: Compound concentration 10.0 uM; remark: listed apart in the source
[17] = target: Kappa-type opioid receptor (Homo sapiens) (UniProt P41145); details: Compound concentration 10.0 uM
Rattus norvegicus [18] = organism: Rattus norvegicus; details: Compound concentration 10.0 uM
[19] = target: Sodium-dependent noradrenaline transporter (Homo sapiens) (UniProt P23975); details: Compound concentration 10.0 uM
[20] = target: 5-hydroxytryptamine receptor 3A (Homo sapiens) (UniProt P46098); details: Compound concentration 10.0 uM
[21] = target: Beta-1 adrenergic receptor (Homo sapiens) (UniProt P08588); details: Compound concentration 10.0 uM
[22] = target: Beta-3 adrenergic receptor (Homo sapiens) (UniProt P13945); details: Compound concentration 10.0 uM
Beta-3 adrenergic receptor (Homo sapiens), sequence (P13945 whole entry, looked up): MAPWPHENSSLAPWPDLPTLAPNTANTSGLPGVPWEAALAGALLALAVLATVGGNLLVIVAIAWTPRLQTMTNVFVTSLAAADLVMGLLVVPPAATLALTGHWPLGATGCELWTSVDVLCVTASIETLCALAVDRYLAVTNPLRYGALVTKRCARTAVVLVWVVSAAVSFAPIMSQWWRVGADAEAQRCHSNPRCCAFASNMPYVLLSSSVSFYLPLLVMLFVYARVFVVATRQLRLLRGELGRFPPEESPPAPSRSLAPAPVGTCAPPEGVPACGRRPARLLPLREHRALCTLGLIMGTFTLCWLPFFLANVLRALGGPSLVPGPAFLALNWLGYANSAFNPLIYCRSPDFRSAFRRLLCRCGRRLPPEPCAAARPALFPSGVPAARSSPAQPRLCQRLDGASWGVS

Mu-type opioid receptor (Homo sapiens), sequence (P35372 whole entry): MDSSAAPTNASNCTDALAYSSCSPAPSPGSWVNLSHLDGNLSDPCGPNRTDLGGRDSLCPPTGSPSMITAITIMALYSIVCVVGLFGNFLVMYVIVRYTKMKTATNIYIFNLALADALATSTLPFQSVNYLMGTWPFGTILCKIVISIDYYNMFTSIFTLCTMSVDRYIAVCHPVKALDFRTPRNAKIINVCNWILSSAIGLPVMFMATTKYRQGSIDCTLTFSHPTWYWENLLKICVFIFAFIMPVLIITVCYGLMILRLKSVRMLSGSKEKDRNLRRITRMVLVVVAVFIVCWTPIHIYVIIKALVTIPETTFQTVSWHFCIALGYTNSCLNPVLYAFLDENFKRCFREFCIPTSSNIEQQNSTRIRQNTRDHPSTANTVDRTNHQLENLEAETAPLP
Histamine H3 receptor (Homo sapiens), sequence (Q9Y5N1 whole entry): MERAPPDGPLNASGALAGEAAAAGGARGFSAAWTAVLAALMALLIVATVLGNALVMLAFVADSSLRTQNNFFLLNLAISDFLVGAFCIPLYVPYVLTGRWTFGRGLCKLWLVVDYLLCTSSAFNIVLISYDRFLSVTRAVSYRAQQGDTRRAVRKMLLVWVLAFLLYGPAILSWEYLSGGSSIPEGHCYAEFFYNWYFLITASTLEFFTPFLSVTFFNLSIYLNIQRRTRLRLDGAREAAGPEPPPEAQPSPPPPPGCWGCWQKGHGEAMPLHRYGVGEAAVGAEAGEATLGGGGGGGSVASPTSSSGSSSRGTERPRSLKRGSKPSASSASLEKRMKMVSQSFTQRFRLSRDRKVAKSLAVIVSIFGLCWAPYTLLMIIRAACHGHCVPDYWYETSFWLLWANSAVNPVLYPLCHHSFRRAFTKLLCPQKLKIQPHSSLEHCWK
5-hydroxytryptamine receptor 3A (Homo sapiens), sequence (P46098 whole entry): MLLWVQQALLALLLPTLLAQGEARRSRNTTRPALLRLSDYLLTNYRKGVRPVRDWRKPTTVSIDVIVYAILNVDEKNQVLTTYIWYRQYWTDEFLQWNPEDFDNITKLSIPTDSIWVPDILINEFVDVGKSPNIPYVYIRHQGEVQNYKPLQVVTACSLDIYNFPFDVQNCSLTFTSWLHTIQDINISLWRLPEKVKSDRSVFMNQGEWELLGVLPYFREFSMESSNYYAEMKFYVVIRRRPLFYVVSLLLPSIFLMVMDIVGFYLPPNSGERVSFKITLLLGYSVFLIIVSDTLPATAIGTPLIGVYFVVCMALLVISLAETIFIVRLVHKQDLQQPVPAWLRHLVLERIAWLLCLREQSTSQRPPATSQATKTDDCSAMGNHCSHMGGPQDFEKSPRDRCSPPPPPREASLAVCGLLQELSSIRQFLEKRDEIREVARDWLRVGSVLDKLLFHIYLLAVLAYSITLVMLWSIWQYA
Endothelin-1 receptor (Homo sapiens), sequence (P25101 whole entry): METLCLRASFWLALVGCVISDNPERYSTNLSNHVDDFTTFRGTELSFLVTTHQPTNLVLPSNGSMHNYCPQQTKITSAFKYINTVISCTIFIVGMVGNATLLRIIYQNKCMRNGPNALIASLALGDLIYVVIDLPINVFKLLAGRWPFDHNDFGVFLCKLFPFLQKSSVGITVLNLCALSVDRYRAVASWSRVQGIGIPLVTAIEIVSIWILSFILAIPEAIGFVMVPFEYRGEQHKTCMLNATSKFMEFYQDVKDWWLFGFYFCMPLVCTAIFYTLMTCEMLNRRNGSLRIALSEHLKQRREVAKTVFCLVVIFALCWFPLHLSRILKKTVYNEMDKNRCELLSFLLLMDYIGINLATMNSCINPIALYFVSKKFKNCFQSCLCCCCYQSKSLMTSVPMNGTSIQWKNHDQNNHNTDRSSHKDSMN
ATP-sensitive inward rectifier potassium channel 11 (Cricetulus griseus), sequence (A0A3L7HHE1 as listed by the source): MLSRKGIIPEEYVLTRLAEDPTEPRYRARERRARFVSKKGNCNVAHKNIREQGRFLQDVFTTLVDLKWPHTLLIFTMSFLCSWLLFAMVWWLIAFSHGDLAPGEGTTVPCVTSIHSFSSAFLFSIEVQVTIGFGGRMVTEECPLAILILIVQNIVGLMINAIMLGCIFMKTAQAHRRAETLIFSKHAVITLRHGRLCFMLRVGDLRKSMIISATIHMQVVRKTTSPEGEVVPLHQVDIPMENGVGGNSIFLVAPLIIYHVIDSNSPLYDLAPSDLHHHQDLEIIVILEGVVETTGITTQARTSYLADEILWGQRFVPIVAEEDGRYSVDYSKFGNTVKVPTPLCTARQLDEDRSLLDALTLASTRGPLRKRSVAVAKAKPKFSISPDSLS
Beta-1 adrenergic receptor (Homo sapiens), sequence (P08588 whole entry, looked up): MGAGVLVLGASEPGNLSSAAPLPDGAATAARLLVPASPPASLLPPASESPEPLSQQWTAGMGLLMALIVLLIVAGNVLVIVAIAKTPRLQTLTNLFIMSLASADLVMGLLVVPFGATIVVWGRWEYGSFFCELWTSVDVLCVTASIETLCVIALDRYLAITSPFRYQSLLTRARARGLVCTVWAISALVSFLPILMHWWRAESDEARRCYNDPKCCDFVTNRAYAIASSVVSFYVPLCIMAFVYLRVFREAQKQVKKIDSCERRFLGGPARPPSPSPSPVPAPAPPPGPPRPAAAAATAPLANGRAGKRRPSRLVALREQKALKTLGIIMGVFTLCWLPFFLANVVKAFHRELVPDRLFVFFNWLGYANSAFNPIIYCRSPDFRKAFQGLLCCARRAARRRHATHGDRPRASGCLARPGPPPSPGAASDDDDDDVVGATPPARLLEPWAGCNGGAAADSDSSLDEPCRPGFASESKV
D(2) dopamine receptor (Homo sapiens), sequence (P14416 whole entry): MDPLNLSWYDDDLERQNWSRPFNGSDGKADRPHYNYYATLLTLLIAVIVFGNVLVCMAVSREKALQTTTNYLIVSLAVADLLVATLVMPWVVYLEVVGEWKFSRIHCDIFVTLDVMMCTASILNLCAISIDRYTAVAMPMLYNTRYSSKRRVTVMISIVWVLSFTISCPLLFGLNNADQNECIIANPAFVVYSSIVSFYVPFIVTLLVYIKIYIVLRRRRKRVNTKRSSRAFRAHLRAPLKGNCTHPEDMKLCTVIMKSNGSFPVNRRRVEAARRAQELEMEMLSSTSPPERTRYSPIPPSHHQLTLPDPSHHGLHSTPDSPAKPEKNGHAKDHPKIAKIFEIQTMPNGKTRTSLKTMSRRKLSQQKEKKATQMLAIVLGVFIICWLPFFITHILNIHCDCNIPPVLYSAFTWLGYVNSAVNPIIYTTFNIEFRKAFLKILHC
Melatonin receptor type 1A (Homo sapiens), sequence (P48039 whole entry): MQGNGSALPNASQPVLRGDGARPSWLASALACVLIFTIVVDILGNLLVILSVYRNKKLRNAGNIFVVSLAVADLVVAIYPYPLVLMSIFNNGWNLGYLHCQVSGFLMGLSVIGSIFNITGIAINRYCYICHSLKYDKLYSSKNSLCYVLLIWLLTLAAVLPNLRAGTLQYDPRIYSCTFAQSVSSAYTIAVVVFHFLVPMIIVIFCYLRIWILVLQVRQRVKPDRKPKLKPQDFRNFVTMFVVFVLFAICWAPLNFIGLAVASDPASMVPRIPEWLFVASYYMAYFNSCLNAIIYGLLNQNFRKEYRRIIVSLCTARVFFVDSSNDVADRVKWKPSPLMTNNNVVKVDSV
Kappa-type opioid receptor (Homo sapiens), sequence (P41145 whole entry): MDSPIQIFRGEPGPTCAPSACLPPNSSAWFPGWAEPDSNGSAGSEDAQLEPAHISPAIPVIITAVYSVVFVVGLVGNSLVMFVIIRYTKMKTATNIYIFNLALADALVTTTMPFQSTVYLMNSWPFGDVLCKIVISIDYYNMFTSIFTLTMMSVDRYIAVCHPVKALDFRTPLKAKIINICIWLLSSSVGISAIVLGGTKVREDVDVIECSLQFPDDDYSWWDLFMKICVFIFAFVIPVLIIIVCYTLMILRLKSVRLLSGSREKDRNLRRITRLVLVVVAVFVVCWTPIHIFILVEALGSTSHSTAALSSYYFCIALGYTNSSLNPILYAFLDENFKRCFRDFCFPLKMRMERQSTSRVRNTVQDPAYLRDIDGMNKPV
D(1A) dopamine receptor (Homo sapiens), sequence (P21728 whole entry): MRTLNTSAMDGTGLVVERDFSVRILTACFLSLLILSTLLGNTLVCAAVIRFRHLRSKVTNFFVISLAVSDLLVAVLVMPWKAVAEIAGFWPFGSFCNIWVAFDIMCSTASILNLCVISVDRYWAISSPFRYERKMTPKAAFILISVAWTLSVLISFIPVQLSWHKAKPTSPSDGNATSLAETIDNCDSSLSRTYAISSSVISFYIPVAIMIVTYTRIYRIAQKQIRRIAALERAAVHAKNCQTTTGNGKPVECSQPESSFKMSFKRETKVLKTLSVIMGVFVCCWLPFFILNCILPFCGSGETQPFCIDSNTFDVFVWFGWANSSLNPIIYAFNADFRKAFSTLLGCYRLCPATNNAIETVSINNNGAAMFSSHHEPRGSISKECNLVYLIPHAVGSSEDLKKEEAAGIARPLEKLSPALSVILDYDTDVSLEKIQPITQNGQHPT
Sigma non-opioid intracellular receptor 1 (Homo sapiens), sequence (Q99720 whole entry): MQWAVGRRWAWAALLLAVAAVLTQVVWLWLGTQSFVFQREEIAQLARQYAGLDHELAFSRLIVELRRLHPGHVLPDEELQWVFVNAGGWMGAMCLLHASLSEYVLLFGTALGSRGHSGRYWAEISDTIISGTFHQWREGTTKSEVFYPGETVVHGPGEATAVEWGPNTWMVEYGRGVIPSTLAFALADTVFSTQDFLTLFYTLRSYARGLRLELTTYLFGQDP

O=C(N1CCS(=O)(=O)CC1)N1C[C@H](c2ccc(OC(F)(F)F)cc2)C[C@H](c2nc(C3CC3)no2)C1 [BAY-386]
inhibition [1]: 3% | inhibition [2]: 10% | inhibition [3]: 14% | inhibition [4]: 2% | inhibition [5]: 4% | inhibition [6]: 16% | inhibition (Rattus norvegicus [7]): 11% | % Inhibition of Control Agonist Response (Mean n=2) [8]: 3.7% | % of Control Agonist Response (Mean n=2) [8]: 1% | inhibition [9]: -3% | inhibition [10]: -6% | inhibition [11]: 4% | inhibition [12]: 1% | inhibition [13]: 2% | inhibition [14]: -3% | inhibition [15]: -2% | inhibition [16]: 12% | inhibition [17]: -3% | inhibition (Rattus norvegicus [18]): 14% | inhibition [19]: 17%

Cc1noc([C@H]2C[C@@H](c3ccc(C(F)(F)F)cc3)CN(C(=O)N3CCS(=O)(=O)C3)C2)n1 [BAY-448]
inhibition [20]: 12.8% | inhibition [21]: 3.66% | inhibition [22]: 19.3%
